From the supplement of paper PMC10307832

Columns and labels:
Assay in all cases: relative viability (nuclei count vs DMSO), 5 days (fraction); higher = more cells survive
HCC-44 = system: HCC-44
Outline: (§1)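 Lung cancer cell lines were pin-tool dosed in 1536-well plates on the day after seeding, with either a lone drug or a fixed anchor-drug dose plus five library-drug doses (not always all listed) in √10 steps. Nuclei were counted on 4× images after 5 days. Relative viability is the ratio of treated-well to vehicle-well nuclei counts, with each value a median of duplicate plates.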

SK-MES-1 = system: SK-MES-1
Outline: as §1

LCLC-103H = system: LCLC-103H
Outline: as §1

NCI-H520 = system: NCI-H520
Outline: as §1

NCI-H1915 = system: NCI-H1915
Outline: as §1

LXF-289 = system: LXF-289
Outline: as §1

COR-L 105 = system: COR-L 105
Outline: as §1

LOU-NH91 = system: LOU-NH91
Outline: as §1

NCI-H1975 = system: NCI-H1975
Outline: as §1

NCI-H1793 = system: NCI-H1793
Outline: as §1

NCI-H2023 = system: NCI-H2023
Outline: as §1

HCC-827 = system: HCC-827
Outline: as §1

A-427 = system: A-427
Outline: as §1

SW 1573 = system: SW 1573
Outline: as §1

NCI-H1993 = system: NCI-H1993
Outline: as §1

NCI-H2087 = system: NCI-H2087
Outline: as §1

NCI-H358 = system: NCI-H358
Outline: as §1

H3255 = system: H3255
Outline: as §1

NCI-H1792 = system: NCI-H1792
Outline: as §1

NCI-H1944 = system: NCI-H1944
Outline: as §1

Cc1csc(=NC2CCCCC2)n1/N=C/c1ccc(O)c(O)c1O [MIM1] + C[C@]1(O)C[C@@H](c2nc(-c3ccc4ccc(-c5ccccc5)nc4c3)c3c(N)nccn32)C1 [Linsitinib] (partner 1 µM)
relative viability (HCC-44; first compound 0.2 µM): 0.67 | relative viability (HCC-44; first compound 0.6325 µM): 0.713 | relative viability (HCC-44; first compound 2 µM): 0.555 | relative viability (HCC-44; first compound 6.325 µM): 0.555 | relative viability (HCC-44; first compound 20 µM): 0.141 | relative viability (SK-MES-1; first compound 0.2 µM): 0.988 | relative viability (SK-MES-1; first compound 0.6325 µM): 0.988 | relative viability (SK-MES-1; first compound 2 µM): 1.02 | relative viability (SK-MES-1; first compound 6.325 µM): 0.853 | relative viability (SK-MES-1; first compound 20 µM): 0.848 | relative viability (LCLC-103H; first compound 0.2 µM): 0.994 | relative viability (LCLC-103H; first compound 0.6325 µM): 1.08 | relative viability (LCLC-103H; first compound 2 µM): 1.22 | relative viability (LCLC-103H; first compound 6.325 µM): 0.999 | relative viability (LCLC-103H; first compound 20 µM): 1.05 | relative viability (NCI-H520; first compound 0.2 µM): 0.983 | relative viability (NCI-H520; first compound 0.6325 µM): 1.1 | relative viability (NCI-H520; first compound 2 µM): 0.921 | relative viability (NCI-H520; first compound 6.325 µM): 0.64 | relative viability (NCI-H520; first compound 20 µM): 0.5 | relative viability (NCI-H1915; first compound 0.2 µM): 1.09 | relative viability (NCI-H1915; first compound 0.6325 µM): 1.03 | relative viability (NCI-H1915; first compound 2 µM): 1.08 | relative viability (NCI-H1915; first compound 6.325 µM): 0.978 | relative viability (NCI-H1915; first compound 20 µM): 0.872 | relative viability (LXF-289; first compound 0.2 µM): 0.943 | relative viability (LXF-289; first compound 0.6325 µM): 0.923 | relative viability (LXF-289; first compound 2 µM): 0.943 | relative viability (LXF-289; first compound 6.325 µM): 0.787 | relative viability (LXF-289; first compound 20 µM): 0.624 | relative viability (COR-L 105; first compound 0.2 µM): 0.899 | relative viability (COR-L 105; first compound 0.6325 µM): 1.04 | relative viability (COR-L 105; first compound 2 µM): 0.898 | relative viability (COR-L 105; first compound 6.325 µM): 0.962 | relative viability (COR-L 105; first compound 20 µM): 0.796 | relative viability (LOU-NH91; first compound 0.2 µM): 0.882 | relative viability (LOU-NH91; first compound 0.6325 µM): 0.978 | relative viability (LOU-NH91; first compound 2 µM): 0.728 | relative viability (LOU-NH91; first compound 6.325 µM): 0.851 | relative viability (LOU-NH91; first compound 20 µM): 0.592 | relative viability (NCI-H1975; first compound 0.2 µM): 0.869 | relative viability (NCI-H1975; first compound 0.6325 µM): 1.12 | relative viability (NCI-H1975; first compound 2 µM): 0.796 | relative viability (NCI-H1975; first compound 6.325 µM): 0.525 | relative viability (NCI-H1975; first compound 20 µM): 0.546 | relative viability (NCI-H1793; first compound 0.2 µM): 0.799 | relative viability (NCI-H1793; first compound 0.6325 µM): 0.902 | relative viability (NCI-H1793; first compound 2 µM): 0.809 | relative viability (NCI-H1793; first compound 6.325 µM): 0.925 | relative viability (NCI-H1793; first compound 20 µM): 1.02 | relative viability (NCI-H2023; first compound 0.2 µM): 0.625 | relative viability (NCI-H2023; first compound 0.6325 µM): 0.739 | relative viability (NCI-H2023; first compound 2 µM): 0.615 | relative viability (NCI-H2023; first compound 6.325 µM): 0.482 | relative viability (NCI-H2023; first compound 20 µM): 0.443 | relative viability (HCC-827; first compound 0.2 µM): 0.955 | relative viability (HCC-827; first compound 0.6325 µM): 0.971 | relative viability (HCC-827; first compound 2 µM): 0.959 | relative viability (HCC-827; first compound 6.325 µM): 0.387 | relative viability (HCC-827; first compound 20 µM): 0.741 | relative viability (A-427; first compound 0.2 µM): 1.09 | relative viability (A-427; first compound 0.6325 µM): 1.14 | relative viability (A-427; first compound 2 µM): 1.11 | relative viability (A-427; first compound 6.325 µM): 1.07 | relative viability (A-427; first compound 20 µM): 0.505 | relative viability (SW 1573; first compound 0.2 µM): 0.872 | relative viability (SW 1573; first compound 0.6325 µM): 0.792 | relative viability (SW 1573; first compound 2 µM): 0.678 | relative viability (SW 1573; first compound 6.325 µM): 0.767 | relative viability (SW 1573; first compound 20 µM): 0.607 | relative viability (NCI-H1993; first compound 0.2 µM): 0.736 | relative viability (NCI-H1993; first compound 0.6325 µM): 0.715 | relative viability (NCI-H1993; first compound 2 µM): 0.63 | relative viability (NCI-H1993; first compound 6.325 µM): 0.68 | relative viability (NCI-H1993; first compound 20 µM): 0.646 | relative viability (NCI-H2087; first compound 0.2 µM): 0.935 | relative viability (NCI-H2087; first compound 0.6325 µM): 0.833 | relative viability (NCI-H2087; first compound 2 µM): 0.989 | relative viability (NCI-H2087; first compound 6.325 µM): 0.693 | relative viability (NCI-H2087; first compound 20 µM): 0.428 | relative viability (NCI-H358; first compound 0.2 µM): 0.703 | relative viability (NCI-H358; first compound 0.6325 µM): 0.651 | relative viability (NCI-H358; first compound 2 µM): 0.694 | relative viability (NCI-H358; first compound 6.325 µM): 0.324 | relative viability (NCI-H358; first compound 20 µM): 0.341 | relative viability (H3255; first compound 0.2 µM): 0.901 | relative viability (H3255; first compound 0.6325 µM): 0.918 | relative viability (H3255; first compound 2 µM): 0.883 | relative viability (H3255; first compound 6.325 µM): 0.637 | relative viability (H3255; first compound 20 µM): 0.406 | relative viability (NCI-H1792; first compound 0.2 µM): 0.551 | relative viability (NCI-H1792; first compound 0.6325 µM): 0.438 | relative viability (NCI-H1792; first compound 2 µM): 0.481 | relative viability (NCI-H1792; first compound 6.325 µM): 0.383 | relative viability (NCI-H1792; first compound 20 µM): 0.503 | relative viability (NCI-H1944; first compound 0.2 µM): 1.12 | relative viability (NCI-H1944; first compound 0.6325 µM): 1.13 | relative viability (NCI-H1944; first compound 2 µM): 0.923 | relative viability (NCI-H1944; first compound 6.325 µM): 1 | relative viability (NCI-H1944; first compound 20 µM): 1.46
